Test results as given in US9676997B2, “Compositions and methods for stabilizing luminogenic substrates” (Promega Corporation, priority 2014, dated 2017).

Assays:
[1] = Stability of 1.25 mM coelenterazine-h in 50% ethanol and 50% propylene glycol with or without 225 mM ATT, HPLC and Arrhenius plots; assay type: physicochemical
Procedure: (§1) The stability of coelenterazine-h in the presence and absence of ATT was measured over time at different temperatures. Specifically, 1.25 mM coelenterazine-h was present in a solution of 50% ethanol and 50% propylene glycol (i.e., the solution without ATT) or a solution of 50% ethanol and 50% propylene glycol with 225 mM ATT (i.e., the solution with ATT). These two solutions were incubated at −20° C., room temperature (RT), 40° C., or 60° C. and analyzed at for 0 days, 1 day, 3 days, 7 days, 15 days, and 30 days.
(§2) Following incubation, high performance liquid chromatography (HPLC) was utilized to identify the components of the respective solutions at each time point. Specifically, an Agilent 1100 HPLC instrument was used and equipped with a quaternary pump, thermostatted autosampler and column compartment, and a G1311B diode-array detector. The column used was a Synergi-MAX-RP (Phenomenex, Torrance, Calif.) 100 AÅ 50×4.6 2.5 μm. The run on the HPLC was a gradient run with 0.1% TFA in water and acetonitrile. Absorbance was measured at 262 nanometers (nm). Standards of coelenterazine-h and its known degradants were run to confirm both the retention time and absorbance trace. 5 μl of each solution was injected and the retention time of coelenterazine-h was 4.7 minutes at room temperature.
(§3) The results of the HPLC analysis are shown below in Tables 4 and 5 and FIGS. 2A and 2B, in which the values are reported as relative peak area percentage at 262 nm (i.e., the lamba max of the substrate). […] In each of FIGS. 2A and 2B, diamond is 1.25 mM coelenterazine-h incubated over time with or without 225 mM ATT, respectively, at −20° C., triangle is 1.25 mM coelenterazine-h incubated over time with or without 225 mM ATT, respectively, at room temperature (RT), star is 1.25 mM coelenterazine-h incubated over time with or without 225 mM ATT, respectively, at 40° C., and cross is 1.25 mM coelenterazine-h incubated over time with or without 225 mM ATT, respectively, at 60° C.
From the HPLC analysis, the half-life of coelenterazine-h in the presence of ATT at 40° C. and 60° C. was calculated to be 20 days and 5 days, respectively, while the half-life of coelenterazine-h in the absence of ATT at 20° C., 40° C. and 60° C. was calculated to be 24 days, 7.5 days and 2 days, respectively (see Table 6 below).
Additionally, Arrhenius plots were generated for coelenterazine-h in the presence and absence of ATT to calculate the half-life of coelenterazine-h at various temperatures. The Arrhenius equation is as follows: […]
In FIG. 9, the slope was −8131.2, the intercept was 22.6157, and R^2 was 0.9994.
In FIG. 10, the slope was −7310.53, the intercept was 21.4386, and R^2 was 0.9964.

[2] = Stability of 1.25 mM coelenterazine-h-h in 50% ethanol and 50% propylene glycol with or without 225 mM ATT, HPLC and Arrhenius plots; assay type: physicochemical
Procedure: as §1, with “coelenterazine-h-h” for “coelenterazine-h”, “at” for “at for”
as §2, with “coelenterazine-h-h” for “coelenterazine-h”, “coelenterazine-h-h” for “coelenterazine-h was 4.7 minutes”, “temperature was 5.5 minutes.” for “temperature.”
as §3, with “Tables 7” for “Tables 4”, “and 8” for “and 5”, “FIGS. 3A” for “FIGS. 2A”, “and 3B,” for “and 2B,”, “mM coelenterazine-h-h” for “mM coelenterazine-h”
From the HPLC analysis, the half-life of coelenterazine-h-h in the presence of ATT at 60° C. was calculated to be 10 days while the half-life of coelenterazine-h-h in the absence of ATT at 40° C. and 60° C. was calculated to be 27 days and 8 days, respectively (see Table 9 below).
Additionally, Arrhenius plots were generated for coelenterazine-h-h in the presence and absence of ATT to calculate the half-life of coelenterazine-h-h at various temperatures. The Arrhenius equation is as follows: […]
In FIG. 11, the slope was −10740.9, the intercept was 30.0575, and R^2 was 0.9967.
In FIG. 12, the […], and R^2 was 0.9648.

[3] = decomposition of coelenterazine-h
[4] = solution in 50% ethanol and 50% propylene glycol, 40° C., read-out: T1/2 Calculated from Arrhenius (converted)
[5] = solution of 50% ethanol and 50% propylene glycol, 40° C., read-out: T1/2 Estimated from graph (converted)
[6] = solution of 50% ethanol and 50% propylene glycol, 60° C., read-out: T1/2 Estimated from graph (converted)
[7] = decomposition of coelenterazine-h-h

For `O=c1c(Cc2ccccc2)nc2c(Cc3ccccc3)[nH]c(-c3ccc(O)cc3)cn1-2` [Coelenterazine-h (15-957-39), coelenterazine-h], the “relative peak area percentage at 262 nm” value ([1]; 40° C., 0 days) was 95.5%, the “relative peak area percentage at 262 nm” value ([1]; 40° C., 1 day) was 84.3% and the “relative peak area percentage at 262 nm” value ([1]; 40° C., 3 days) was 71.5%. For the same compound, the “relative peak area percentage at 262 nm” value ([1]; 40° C., 7 days) was 54.2%, the “relative peak area percentage at 262 nm” value ([1]; 40° C., 15 days) was 26.7% and the “relative peak area percentage at 262 nm” value ([1]; 40° C., 30 days) was 1.6%. For the same compound, the “relative peak area percentage at 262 nm” value ([1]; 60° C., 0 days) was 95.5%, the “relative peak area percentage at 262 nm” value ([1]; 60° C., 1 day) was 63.6% and the “relative peak area percentage at 262 nm” value ([1]; 60° C., 3 days) was 32.3%. The “relative peak area percentage at 262 nm” value ([1]; 60° C., 7 days) was 1.2%, the “relative peak area percentage at 262 nm” value ([1]; RT, 0 days) was 95.5% and the “relative peak area percentage at 262 nm” value ([1]; RT, 1 day) was 92.9%. The “relative peak area percentage at 262 nm” value ([1]; RT, 3 days) was 88.1%, the “relative peak area percentage at 262 nm” value ([1]; RT, 7 days) was 80.7% and the “relative peak area percentage at 262 nm” value ([1]; RT, 15 days) was 66.7%. The “relative peak area percentage at 262 nm” value ([1]; RT, 30 days) was 36.6%, the Arrhenius plot intercept [1, 3] was 21.4386 and the Arrhenius plot slope [1, 3] was −7310.53. The half-life at 1.25 mM [1, 4] was 4.7 days, the half-life at 1.25 mM ([1]; solution of 50% ethanol and 50% propylene glycol, 20° C., read-out: T1/2 Calculated from Arrhenius (converted)) was 23.2 days and the half-life at 1.25 mM ([1]; solution of 50% ethanol and 50% propylene glycol, 20° C., read-out: T1/2 Estimated from graph (converted)) was 24 days. It also gave a half-life at 1.25 mM [1, 5] of 7.5 days, a half-life at 1.25 mM ([1]; solution of 50% ethanol and 50% propylene glycol, 60° C., read-out: T1/2 Calculated from Arrhenius (converted)) of 1.2 days and a half-life at 1.25 mM [1, 6] of 2 days. The half-life at 1.25 mM ([1]; solution of 50% ethanol and 50% propylene glycol, −20° C., read-out: T1/2 Calculated from Arrhenius (converted)) was 1210 days, the “relative peak area percentage at 262 nm” value ([1]; −20° C., 0 days) was 95.5% and the “relative peak area percentage at 262 nm” value ([1]; −20° C., 1 day) was 95.4%. The “relative peak area percentage at 262 nm” value ([1]; −20° C., 3 days) was 95.0%, the “relative peak area percentage at 262 nm” value ([1]; −20° C., 7 days) was 95.0% and the “relative peak area percentage at 262 nm” value ([1]; −20° C., 15 days) was 94.6%. The “relative peak area percentage at 262 nm” value ([1]; −20° C., 30 days) was 88.8%.
For `O=c1c(Cc2ccccc2)nc2c(Cc3ccccc3)[nH]c(-c3ccccc3)cn1-2` [Coelenterazine-h-h (1193-25-1), coelenterazine-h-h], the “relative peak area percentage at 262 nm” value ([2]; 40° C., 0 days) was 98.7%, the “relative peak area percentage at 262 nm” value ([2]; 40° C., 1 day) was 98.0% and the “relative peak area percentage at 262 nm” value ([2]; 40° C., 3 days) was 95.1%. For the same compound, the “relative peak area percentage at 262 nm” value ([2]; 40° C., 7 days) was 89.1%, the “relative peak area percentage at 262 nm” value ([2]; 40° C., 15 days) was 74.9% and the “relative peak area percentage at 262 nm” value ([2]; 40° C., 30 days) was 46.0%. The “relative peak area percentage at 262 nm” value ([2]; 60° C., 0 days) was 98.7%, the “relative peak area percentage at 262 nm” value ([2]; 60° C., 1 day) was 94.3% and the “relative peak area percentage at 262 nm” value ([2]; 60° C., 3 days) was 80.0%. The “relative peak area percentage at 262 nm” value ([2]; 60° C., 7 days) was 59.1%, the “relative peak area percentage at 262 nm” value ([2]; 60° C., 15 days) was 0.2% and the “relative peak area percentage at 262 nm” value ([2]; RT, 0 days) was 98.7%. For the same compound, the “relative peak area percentage at 262 nm” value ([2]; RT, 1 day) was 98.2%, the “relative peak area percentage at 262 nm” value ([2]; RT, 3 days) was 97.5% and the “relative peak area percentage at 262 nm” value ([2]; RT, 7 days) was 94.4%. For the same compound, the “relative peak area percentage at 262 nm” value ([2]; RT, 15 days) was 86.6%, the “relative peak area percentage at 262 nm” value ([2]; RT, 30 days) was 85.7% and the Arrhenius plot intercept [2, 7] was 30.8352. For the same compound, the Arrhenius plot slope [2, 7] was −10650.1, the half-life at 1.25 mM ([2]; solution in 50% ethanol and 50% propylene glycol, 20° C., read-out: T1/2 Calculated from Arrhenius (converted)) was 172 days and the half-life at 1.25 mM [2, 4] was 16.9 days. It also gave a half-life at 1.25 mM ([2]; solution in 50% ethanol and 50% propylene glycol, 60° C., read-out: T1/2 Calculated from Arrhenius (converted)) of 2.2 days, a half-life at 1.25 mM [2, 5] of 27 days and a half-life at 1.25 mM [2, 6] of 8 days. For the same compound, the “relative peak area percentage at 262 nm” value ([2]; −20° C., 0 days) was 98.7%, the “relative peak area percentage at 262 nm” value ([2]; −20° C., 1 day) was 98.6% and the “relative peak area percentage at 262 nm” value ([2]; −20° C., 3 days) was 98.2%. For the same compound, the “relative peak area percentage at 262 nm” value ([2]; −20° C., 7 days) was 98.4%, the “relative peak area percentage at 262 nm” value ([2]; −20° C., 15 days) was 97.9% and the “relative peak area percentage at 262 nm” value ([2]; −20° C., 30 days) was 98.5%.
